Entries after “also recorded” stand apart in the source; their conditions may differ.
Tests used:
[1] = system: iENs; assay: sEPSC recording from iENs; format: cell-based, human; details: CNQX 20 μM; 21 dpt
Method: Whole cell patch clamp recordings were performed on iGNs and iENs with voltage or current clamp mode. Recording pipettes with resistances of 4-6 MΩ were filled with an internal solution containing (in mM): 120 K-gluconate, 9 KCl, 10 KOH, 3.48 MgCl2, 4 NaCl, 10 HEPES, 4 Na2ATP, 0.4 Na3GTP, 17.5 Sucrose, 0.5 EGTA with an osmolarity of 290 mOsm and pH 7.3. Neurons were bathed in the extracellular solution containing (in mM): 124 NaCl, 3 KCl, 1.3 NaH2PO4, 10 dextrose, 2 MgCl2, 2 CaCl2, 10 HEPES at pH 7.4. […] Neurons were held at −70 mV except otherwise indicated or at required currents using an Axon MultiClamp 700B amplifier (Axon Instruments). Signal was sampled at 40 kHz and filtered at 2 kHz (Digidata 1440A, Molecular Devices). Recordings with serial resistance higher than 20 MO or leaking current more than 200 pA were not analyzed. Data were analyzed offline using the ClampFit (Molecular Devices) or MiniAnalysis (Synaptosoft). Voltage clamp was used for recording I/V curve of Na/K current using a protocol of increasing holding potential 10 mV for each step from −80 mV. […] The reversal potential for ions was −49 mV in our recording system, calculated using the simplified Nernst equation: E(Cl^−)=−59*log(extracellular[Cl^−]/intracellular[Cl^−]),(T=25° C.). Spontaneous action potentials were recorded at I=0 mode. […]

[2] = system: transplanted human iGNs in acute cortical slices; assay: Slice recording of sEPSCs from human iGNs transplanted into mouse cortex; format: cell-based; details: CNQX 50 μM; -70 mV voltage clamp
Method: P1 NSG pups were anesthetized on ice for 1-2 minutes before being secured with tape onto a prechilled ice block. Human iGNs were priorly labeled with RFP as described, and trypsinized to single cells at 8 dpt. Concentrated cell suspensions (˜2.5-5×10^4 cells/μl) were front loaded into a microliter syringe (26s gauge, Hamilton Company) and injected (200 nl, 250 nl/min) bilaterally to a depth of 0.2 mm near the centre of the anterior/posterior axis and 1 mm away from the midline.
After isofluorane anesthesia, brains were quickly cut out and 300-μm coronal slices were sectioned using vibrating microtome (VF-200 Microtome, Precisionary Instruments). Slices were incubated at 30° C. in artificial cerebrospinal fluid (ACSF) containing (in mM): 125 NaCl, 2.5 KCl, 1.25 NaH2PO4, 2 CaCl2, 1 MgCl2, 26 NaHCO3, and 10 glucose, saturated with 95% 02 and 5% CO2 at 30-32° C. for recovery for at least 1 hour. During recording, slices were kept in a recording chamber with continuous perfusion of ACSF. CNQX (50 μM, Tocris) was used to block sEPSC. Patch recordings were done by using IR-DIC visualization techniques with an Olympus BX51WI upright microscope with a ×60 water-immersion lens. Patch clamp recording method was same with that of recording in cultured cell.

[3] = system: mixed iENs/iGNs; assay: Spontaneous PSC recording from iGNs in mixed iENs/iGNs co-culture; format: cell-based, human; details: 56 dpt, -70 mV; after bicuculline
Method: (§1) Whole cell patch clamp recordings were performed on iGNs and iENs with voltage or current clamp mode. Recording pipettes with resistances of 4-6 MΩ were filled with an internal solution containing (in mM): 120 K-gluconate, 9 KCl, 10 KOH, 3.48 MgCl2, 4 NaCl, 10 HEPES, 4 Na2ATP, 0.4 Na3GTP, 17.5 Sucrose, 0.5 EGTA with an osmolarity of 290 mOsm and pH 7.3. Neurons were bathed in the extracellular solution containing (in mM): 124 NaCl, 3 KCl, 1.3 NaH2PO4, 10 dextrose, 2 MgCl2, 2 CaCl2, 10 HEPES at pH 7.4. Bicuculline (20 μM, Tocris) and CNQX (50 μM, Tocris) were used to block inhibitory or excitatory synaptic responses, respectively. Neurons were held at −70 mV except otherwise indicated or at required currents using an Axon MultiClamp 700B amplifier (Axon Instruments). Signal was sampled at 40 kHz and filtered at 2 kHz (Digidata 1440A, Molecular Devices). Recordings with serial resistance higher than 20 MO or leaking current more than 200 pA were not analyzed. Data were analyzed offline using the ClampFit (Molecular Devices) or MiniAnalysis (Synaptosoft). […] The reversal potential for ions was −49 mV in our recording system, calculated using the simplified Nernst equation: E(Cl^−)=−59*log(extracellular[Cl^−]/intracellular[Cl^−]),(T=25° C.). Spontaneous action potentials were recorded at I=0 mode. […]

[4] = system: iGNs; assay: Whole cell patch clamp of iGNs: GABA-evoked responses and spontaneous IPSCs; format: cell-based, human; details: 1 mM, 100 ms
Method: as §1, with “Neurons were held at −70 mV except otherwise indicated or at required currents using an Axon MultiClamp 700B amplifier (Axon Instruments). Signal was sampled at 40 kHz and filtered at 2 kHz (Digidata 1440A, Molecular Devices).” left out
For chemical GABA evoked IPSC recording, tip of glass pipettes filled with freshly made GABA (1 mM, Sigma) was put approximately 100 μm away from soma along dendrites of recorded neurons. […]

[5] = system: iGN expressing ChETA; format: cell-based, human

N#Cc1cc2[nH]c(=O)c(=O)[nH]c2cc1[N+](=O)[O-] [CNQX]
sEPSCs in iENs, block [1]: completely abolished sEPSCs | spontaneous EPSCs (sEPSCs) in transplanted iGNs, block [2]: abolished; also recorded: blocked | sEPSCs (fast-rise, fast-decay PSCs) in iGNs of mixed culture, block [3]: completely abolished the remaining fast-rise, fast-decay PSCs; also recorded: blocked

NCCCC(=O)O [GABA, gamma-aminobutyric acid]
induction of IPSCs by exogenous application [4]: triggered inhibitory postsynaptic currents

TTX
light-evoked inward currents, block [5]: could not block these light-evoked currents

Reference: patent US20180072988A1, “GENERATION OF FUNCTIONAL CELLS FROM STEM CELLS” (priority 2015, published 2018)
